From patent publication US12163950B2, “Synthetic odorant receptors” (Duke University, priority 2018, dated 2024)

What was measured:
Mut-OR10 = experiment: cAMP-mediated luciferase reporter gene assay, triple Arg mutant of consensus OR10; type: cell-based, human; details: FIG. 10F
Procedure: (§1) FIG. 10A-B. Consensus OR1, OR6, OR10 and OR52 are functionally expressed in Hana3A cells, as indicated by cAMP-mediated luciferase assays. (A) Heatmap of ORs responses to 30 uM odorant selected from a previously screened panel of 320 compounds. Luciferase activity was normalized for each OR by setting as 1.0 the highest response value, and 0 as the lowest response value. (B) Dose-response curve of consensus ORs to candidate ligands ranging from 0 to 316 uM or 1 mM. Cells transfected with pCI vector were used as a negative control. Luciferase activity was normalized by setting as 1.0 the highest response value, and 0 as the lowest response value of each experiment. n=3, error bars indicate SEM.
(§2) FIG. 10C-D-E-F. Improvement of OR expression by mutations in TM1 and Helix 8. (C) Homology model of hOR10. Each TM is highlighted in a colored tubes and residues D511.60, S521.61, H531.62 and E294H8 are represented in licorice (pink). (D) Zoom on the residues 1.60, 1.61, 1.62, H8 mutated for hOR1 (red), hOR10 (blue), hOR51 (green) and hOR52 (pink). […]
(§3) The consensus ORs already show a clear increase of cell surface expression in comparison to naturally-occurring ORs. […] Experiments evaluated the cell surface expression of the consensus ORs with their corresponding triple Arg mutants, including a well-studied non-olfactory class A GPCR, the muscarinic 3 receptor (M3) (FIG. 10E). […]

Mut-OR52 = experiment: cAMP-mediated luciferase reporter gene assay, triple Arg mutant of consensus OR52; type: cell-based, human; details: FIG. 10F
Procedure: as §1, §2, §3

response of Mut-OR10 compared to consensus OR10 (Mut-OR10)	response of Mut-OR10 to its agonist (luciferase activity) (Mut-OR10; dose-response)	response of Mut-OR52 to its agonist (luciferase activity) (Mut-OR52)	SMILES
diminished compared to OR10	responded	–	CC(=O)/C=C/C1=C(C)CCCC1(C)C [0-ionone, β-ionone]
–	–	responded	CCCCCCCCC(=O)O [nonanoic acid]
